Measured values reported in patent US10870638B2, “Pyridazinone compound or its salt, and herbicide containing it” (ISHIHARA SANGYO KAISHA, LTD., priority 2016, dated 2020).

Key:
Type in all cases: in vivo
[1] = system: redroot pigweed (Amaranthus retroflexus L.); test: Test Example 1: foliar treatment, growth inhibition rate on 14th day; conditions: active ingredient amount 31 g/ha, 14th day after application, visual, 0 = non-treated, 100 = complete kill
In short: (§1)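 Using a small sprayer, formulated compound in water (0.1 vol % surfactant, 1,000 L/ha) was applied to seedlings grown from seed in upland soil. Fourteen days on, growth state was observed and expressed as percent inhibition from 0 to 100.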

[2] = system: barnyardgrass (Echinochloa crus-qalli L.); test: as above; conditions: active ingredient amount 31 g/ha, 14th day after application, visual, 0 = non-treated, 100 = complete kill
In short: as §1

[3] = system: rice (Oryza sativa L.); test: as above; conditions: active ingredient amount 31 g/ha, 14th day after application, visual, 0 = non-treated, 100 = complete kill
In short: (§2)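 Growth inhibition rates (%) come from visual observation on the 14th day following a single foliar application. Soybean was sprayed at the primary leaf stage, rice at 0.2–2.7 leaves, wild oat at 0.4–1.2, green foxtail at 0.5–3.2.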

[4] = system: italian ryegrass (Lolium multiflorum Lam.); test: as above; conditions: active ingredient amount 31 g/ha, 14th day after application, visual, 0 = non-treated, 100 = complete kill
In short: as §1

[5] = system: wheat (Triticum aestivum L.); test: as above; conditions: active ingredient amount 31 g/ha, 14th day after application, visual, 0 = non-treated, 100 = complete kill
In short: as §1

[6] = system: wild oat (Avena fatua L.); test: as above; conditions: active ingredient amount 31 g/ha, 14th day after application, visual, 0 = non-treated, 100 = complete kill
In short: as §2

[7] = system: corn (Zea mays L.); test: as above; conditions: active ingredient amount 31 g/ha, 14th day after application, visual, 0 = non-treated, 100 = complete kill
In short: as §1

[8] = system: soybean (Glycine max Merr.); test: as above; conditions: active ingredient amount 31 g/ha, 14th day after application, visual, 0 = non-treated, 100 = complete kill
In short: as §2

[9] = system: green foxtail (Setaria viridis L.); test: as above; conditions: active ingredient amount 31 g/ha, 14th day after application, visual, 0 = non-treated, 100 = complete kill
In short: as §2

[10] = system: crabgrass (Digitaria sanquinalis L.); test: as above; conditions: active ingredient amount 31 g/ha, 14th day after application, visual, 0 = non-treated, 100 = complete kill
In short: as §1

[11] = system: redroot pigweed (Amaranthus retroflexus L.); test: Test Example 2: soil application on the day after sowing, growth inhibition rate on 14th day; conditions: active ingredient amount 31 g/ha, 14th day after application
In short: (§3)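 Pre-emergence soil spray, day after sowing; WP or EC formulations diluted to 1,000 L/ha water at set a.i. rates. Visual growth inhibition %, 0 = untreated, 100 = complete kill, read at day 14.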

[12] = system: barnyardgrass (Echinochloa crus-qalli L.); test: as above; conditions: active ingredient amount 31 g/ha, 14th day after application
In short: as §3

[13] = system: rice (Oryza sativa L.); test: as above; conditions: active ingredient amount 31 g/ha, 14th day after application
In short: as §3

[14] = system: wheat (Triticum aestivum L.); test: as above; conditions: active ingredient amount 31 g/ha, 14th day after application
In short: as §3

[15] = system: corn (Zea mays L.); test: as above; conditions: active ingredient amount 31 g/ha, 14th day after application
In short: as §3

[16] = system: soybean (Glycine max Merr.); test: as above; conditions: active ingredient amount 31 g/ha, 14th day after application
In short: as §3

[17] = system: green foxtail (Setaria viridis L.); test: as above; conditions: active ingredient amount 31 g/ha, 14th day after application
In short: as §3

[18] = system: velvetleaf (Abutilon theophrasti MEDIC.); test: as above; conditions: active ingredient amount 31 g/ha, 14th day after application
In short: as §3

[19] = system: prickly sida (Sida spinosa L.); test: as above; conditions: active ingredient amount 31 g/ha, 14th day after application
In short: as §3

[20] = system: crabgrass (Digitaris sanquinalis L.); test: as above; conditions: active ingredient amount 31 g/ha, 14th day after application
In short: as §3

Structure (SMILES) | Growth inhibition rate (%) Redroot pigweed [1] [%] | Growth inhibition rate (%) Barnyardgrass [2] [%] | Growth inhibition rate (%) Rice [3] [%] | Growth inhibition rate (%) Italian ryegrass [4] [%] | Growth inhibition rate (%) Wheat [5] [%] | Growth inhibition rate (%) Wild oat [6] [%] | Growth inhibition rate (%) Corn [7] [%] | Growth inhibition rate (%) Soybean [8] [%] | Growth inhibition rate (%) Green foxtail [9] [%] | Growth inhibition rate (%) Crabgrass [10] [%] | Growth inhibition rate (%) Redroot pigweed [11] [%] | Growth inhibition rate (%) Barnyardgrass [12] [%] | Growth inhibition rate (%) Rice [13] [%] | Growth inhibition rate (%) Wheat [14] [%] | Growth inhibition rate (%) Corn [15] [%] | Growth inhibition rate (%) Soybean [16] [%] | Growth inhibition rate (%) Green foxtail [17] [%] | Growth inhibition rate (%) Velvetleaf [18] [%] | Growth inhibition rate (%) Prickly sida [19] [%] | Growth inhibition rate (%) Crabgrass [20] [%]
COCC(=O)Oc1c(C)nn(C)c(=O)c1-c1cc(Oc2cnc3cc(Cl)ccc3n2)ccc1C [Compound 3-45] | 0 | 100 | 98 | 100 | 98 | 100 | 45 | 25 | 99 | 99 | 0 | 95 | 25 | 0 | 0 | 0 | 85 | 0 | 0 | 20
Cc1ccc(Oc2cnc3cc(Cl)ccc3n2)cc1-c1c(OC(=O)COc2ccccc2)c(C)nn(C)c1=O [Compound 3-48] | 0 | 100 | 0 | 95 | 90 | 75 | 25 | 10 | 100 | 98 | 0 | 98 | 0 | 20 | 0 | 0 | 100 | 0 | 0 | 60
C=CC(=O)Oc1c(C)nn(C)c(=O)c1-c1cc(Oc2cnc3cc(Cl)ccc3n2)ccc1C [Compound 3-49] | 0 | 99 | 50 | 100 | 99 | 98 | 45 | 20 | 100 | 100 | 0 | 95 | 0 | 10 | 0 | 0 | 85 | 0 | 0 | 20
CSCCC(=O)Oc1c(C)nn(C)c(=O)c1-c1cc(Oc2cnc3cc(Cl)ccc3n2)ccc1C [Compound 3-50] | 0 | 100 | 60 | 93 | 99 | 98 | 15 | 10 | 100 | 98 | 0 | 99 | 0 | 0 | 0 | 0 | 98 | 0 | 0 | 80
Cc1ccc(Oc2cnc3cc(Cl)ccc3n2)cc1-c1c(OC(=O)c2ccccn2)c(C)nn(C)c1=O [Compound 3-51] | 0 | 99 | 60 | 99 | 99 | 99 | 60 | 30 | 100 | 100 | 0 | 99 | 0 | 0 | 0 | 0 | 100 | 0 | 0 | 95
Cc1ccc(Oc2cnc3cc(Cl)ccc3n2)cc1-c1c(OC(=O)C(F)(F)F)c(C)nn(C)c1=O [Compound 3-52] | 0 | 100 | 70 | 90 | 10 | 20 | 35 | 20 | 100 | 95 | 0 | 99 | 0 | 0 | 0 | 0 | 100 | 0 | 0 | 95
Cc1ccc(Oc2cnc3cc(Cl)ccc3n2)cc1-c1c(OC(=O)C=CCl)c(C)nn(C)c1=O [Compound 3-54] | 0 | 100 | 20 | 95 | 93 | 78 | 30 | 20 | 100 | 98 | 0 | 99 | 0 | 0 | 0 | 0 | 98 | 0 | 0 | 30
COCCOC(=O)Oc1c(C)nn(C)c(=O)c1-c1cc(Oc2cnc3cc(Cl)ccc3n2)ccc1C [Compound 3-55] | 0 | 98 | 90 | 99 | 98 | 99 | 50 | 30 | 100 | 99 | 0 | 80 | 0 | 0 | 0 | 0 | 60 | 0 | 0 | 30
